Results reported in paper PMC6905088 (Biochemical pharmacology, 2019).

How the values were obtained:
CYP2D6 = CYP2D6 (Homo sapiens, UniProt P10635)
CYP1A2 = target: T1, CYP1A2 (Homo sapiens, UniProt P05177); experiment: Recombinant isozyme kinetic assay; settings: substrate desmethyl-terbinafine
T1 sequence (P05177 1-516): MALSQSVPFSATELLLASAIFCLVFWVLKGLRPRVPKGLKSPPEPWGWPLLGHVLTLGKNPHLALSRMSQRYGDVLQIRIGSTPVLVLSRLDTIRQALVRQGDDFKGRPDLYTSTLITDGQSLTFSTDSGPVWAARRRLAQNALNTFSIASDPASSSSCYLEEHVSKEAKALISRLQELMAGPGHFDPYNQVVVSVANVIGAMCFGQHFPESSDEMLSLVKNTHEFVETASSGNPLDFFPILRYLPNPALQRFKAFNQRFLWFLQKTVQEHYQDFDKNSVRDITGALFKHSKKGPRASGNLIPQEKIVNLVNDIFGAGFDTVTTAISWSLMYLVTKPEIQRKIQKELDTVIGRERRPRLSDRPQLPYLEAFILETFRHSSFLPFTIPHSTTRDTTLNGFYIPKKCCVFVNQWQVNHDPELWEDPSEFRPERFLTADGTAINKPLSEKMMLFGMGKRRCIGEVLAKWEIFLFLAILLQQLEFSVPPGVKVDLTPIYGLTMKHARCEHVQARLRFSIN

CYP2B6 = target: T2, CYP2B6 (Homo sapiens, UniProt P20813); experiment: Recombinant isozyme kinetic assay; settings: substrate desmethyl-terbinafine
T2 sequence (P20813 1-491): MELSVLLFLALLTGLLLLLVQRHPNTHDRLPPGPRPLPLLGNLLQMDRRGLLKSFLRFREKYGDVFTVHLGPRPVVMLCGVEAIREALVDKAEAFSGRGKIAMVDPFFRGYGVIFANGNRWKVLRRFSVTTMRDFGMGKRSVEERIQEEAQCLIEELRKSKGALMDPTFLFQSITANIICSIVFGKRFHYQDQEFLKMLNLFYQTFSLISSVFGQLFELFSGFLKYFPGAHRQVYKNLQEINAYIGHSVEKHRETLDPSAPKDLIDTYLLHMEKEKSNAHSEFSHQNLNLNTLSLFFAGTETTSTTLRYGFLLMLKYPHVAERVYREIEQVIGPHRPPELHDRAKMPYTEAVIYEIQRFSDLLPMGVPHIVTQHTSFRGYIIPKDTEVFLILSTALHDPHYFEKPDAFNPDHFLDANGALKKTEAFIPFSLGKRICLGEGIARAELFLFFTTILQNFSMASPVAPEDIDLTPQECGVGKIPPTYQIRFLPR

CYP2C8 = target: T3, CYP2C8 (Homo sapiens, UniProt P10632); experiment: Recombinant isozyme kinetic assay; settings: substrate desmethyl-terbinafine
T3 sequence (P10632 1-490): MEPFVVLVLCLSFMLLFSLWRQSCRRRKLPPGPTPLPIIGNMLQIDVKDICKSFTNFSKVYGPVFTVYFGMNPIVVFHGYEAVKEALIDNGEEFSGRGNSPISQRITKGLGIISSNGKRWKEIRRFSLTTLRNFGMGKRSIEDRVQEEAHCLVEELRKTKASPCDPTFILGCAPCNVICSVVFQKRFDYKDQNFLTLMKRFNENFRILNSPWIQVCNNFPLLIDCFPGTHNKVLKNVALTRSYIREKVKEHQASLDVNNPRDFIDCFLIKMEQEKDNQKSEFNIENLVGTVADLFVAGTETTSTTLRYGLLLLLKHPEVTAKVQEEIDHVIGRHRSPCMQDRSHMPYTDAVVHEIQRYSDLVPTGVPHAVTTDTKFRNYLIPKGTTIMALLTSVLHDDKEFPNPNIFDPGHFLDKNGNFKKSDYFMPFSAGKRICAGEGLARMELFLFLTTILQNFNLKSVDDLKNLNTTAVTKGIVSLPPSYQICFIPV

CYP2C9 = CYP2C9 (Homo sapiens, UniProt P11712); experiment: Recombinant isozyme kinetic assay
[1] = normalized MS peak area, scaled x10^6
[2] = CYP2C9, Step 2.2b, substrate desmethyl-terbinafine

Chain of CYP2C9 (P11712 whole entry): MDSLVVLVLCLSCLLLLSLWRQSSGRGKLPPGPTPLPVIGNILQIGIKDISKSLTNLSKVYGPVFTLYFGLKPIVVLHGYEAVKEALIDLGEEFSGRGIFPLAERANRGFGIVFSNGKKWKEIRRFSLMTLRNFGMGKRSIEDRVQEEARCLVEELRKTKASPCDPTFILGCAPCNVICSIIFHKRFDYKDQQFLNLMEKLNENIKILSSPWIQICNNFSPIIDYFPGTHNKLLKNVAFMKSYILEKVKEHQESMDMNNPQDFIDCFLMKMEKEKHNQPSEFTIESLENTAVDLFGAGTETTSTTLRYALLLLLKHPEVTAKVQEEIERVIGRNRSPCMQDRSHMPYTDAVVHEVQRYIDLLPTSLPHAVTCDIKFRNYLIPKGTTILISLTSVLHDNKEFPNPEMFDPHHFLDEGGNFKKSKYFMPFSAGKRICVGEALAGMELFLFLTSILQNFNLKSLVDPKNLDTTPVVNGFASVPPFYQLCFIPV
Chain of CYP2D6 (P10635 whole entry): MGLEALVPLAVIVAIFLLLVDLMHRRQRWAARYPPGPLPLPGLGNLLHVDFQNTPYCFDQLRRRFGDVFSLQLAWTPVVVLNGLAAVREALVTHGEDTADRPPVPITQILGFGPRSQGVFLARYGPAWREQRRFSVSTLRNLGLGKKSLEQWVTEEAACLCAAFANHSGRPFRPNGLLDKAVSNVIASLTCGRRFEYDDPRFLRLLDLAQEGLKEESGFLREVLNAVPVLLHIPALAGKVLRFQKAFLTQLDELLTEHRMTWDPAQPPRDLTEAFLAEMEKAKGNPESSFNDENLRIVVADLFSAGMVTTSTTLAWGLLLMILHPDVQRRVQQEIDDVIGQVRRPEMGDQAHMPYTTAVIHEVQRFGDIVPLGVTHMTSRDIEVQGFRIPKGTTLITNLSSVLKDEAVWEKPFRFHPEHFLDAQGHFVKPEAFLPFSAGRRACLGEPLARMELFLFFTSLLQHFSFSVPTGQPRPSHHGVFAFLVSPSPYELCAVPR

CC(C)(C)C#C/C=C/CNCc1cccc2ccccc12.Cl [desmethyl-terbinafine, N-desmethyl-terbinafine hydrochloride]
desmethyl hydroxyterbinafine formation (kinetic constants) (CYP2D6): undetected | desmethyl hydroxyterbinafine formation (kinetic constants) (CYP1A2): undetected | desmethyl-terbinafine dihydrodiol formation (kinetic constants) (CYP1A2): undetected | 6,6-dimethyl-2-hepten-4-yn-1-amine formation (steady-state kinetic constants) (CYP2B6; Step 2.2b): undetected | Vmax, desmethyl hydroxyterbinafine formation (CYP2B6; no saturation): linear | Vmax, desmethyl-terbinafine dihydrodiol formation (CYP2B6; [1]): 0.59 ± 0.13 μV*sec/min/nmol | Vmax, 1-naphthyl-methylamine formation (CYP2C8; Step 2.2a): 85 ± 6.5 pmol/min/nmol protein | 6,6-dimethyl-2-hepten-4-yn-1-amine formation (steady-state kinetic constants) (CYP2C8; Step 2.2b): undetected | Vmax, 1-naphthaldehyde formation (CYP2C8; Step 2.2b): 300 ± 28 pmol/min/nmol protein | desmethyl-terbinafine dihydrodiol formation (kinetic constants) (CYP2C8): undetected | Vmax, desmethyl hydroxyterbinafine formation (CYP2C8; [1]): 0.61 ± 0.04 μV*sec/min/nmol | Vmax, 1-naphthyl-methylamine formation (CYP2C9; CYP2C9, Step 2.2a, substrate desmethyl-terbinafine): 330 ± 41 pmol/min/nmol protein | 6,6-dimethyl-2-hepten-4-yn-1-amine formation (steady-state kinetic constants) (CYP2C9; [2]): undetected | Vmax, 1-naphthaldehyde formation (CYP2C9; [2]): 69 ± 4.4 pmol/min/nmol protein | desmethyl hydroxyterbinafine formation (kinetic constants) (CYP2C9; CYP2C9, substrate desmethyl-terbinafine): undetected | Vmax, desmethyl-terbinafine dihydrodiol formation (CYP2C9; CYP2C9, substrate desmethyl-terbinafine, normalized MS peak area, scaled x10^6): 2.0 ± 0.07 μV*sec/min/nmol | fold higher efficiency of dihydrodiol formation by CYP2C9 vs CYP2B6 (CYP2C9; substrate desmethylterbinafine): 50 fold
